Data from ChEMBL document CHEMBL2177019, “Carbamate derivatives of indolines as cholinesterase inhibitors and antioxidants for the treatment of Alzheimer's disease” (J Med Chem, 2012).
The source made the active and inactive calls. The rule behind the calls is not given here.

Experiments:
Gallus gallus [1] = species on record: Gallus gallus; assay: Prevention of apoptosis in chick primary telencephalon neurons assessed as protection against serum deprivation-induced cytotoxicity at 1 to 10 uM by MTT assay; assay type: functional
[2] = Selectivity ratio of IC50 for equine BuChE to IC50 for bovine AChE
[3] = system: Radical scavenging activity; assay: Antioxidant activity of the compound assessed as DPPH radical scavenging at 10 uM after 30 secs by spectrophotometry; assay type: functional
Gallus gallus [4] = species on record: Gallus gallus; assay: Prevention of apoptosis in chick primary telencephalon neurons assessed as protection against serum deprivation-induced oxidative stress at 10 nM measured on day 8 by MTT assay; assay type: functional
[5] = Antioxidant activity assessed as scavenging of glucose oxidase-generated H2O2 and hydroxyl radicals by chemiluminescence assay; assay type: functional
[6] = Antioxidant activity of the compound assessed as DHR radical scavenging activity at 10 uM by fluorescence assay; assay type: functional
H9c2 [7] = assay: Prevention of apoptosis in rat H9c2 cells assessed as protection against oxidative stress-induced cytotoxicity at 100 nM […] by Alamar blue assay; assay type: functional
[8] = Cytotoxicity against rat H9c2 cells assessed as cell viability in absence of H2O2; assay type: cell-based; design: concentration or dose not given beside the values; details: read-out: Activity
Butyrylcholinesterase = Butyrylcholinesterase (Equus caballus, UniProt Q9N1N9); assay: Inhibition of equine BuChE after 120 mins by Ellman's method
Acetylcholinesterase = target: T1, Acetylcholinesterase (Bos taurus, UniProt P23795); assay: Inhibition of bovine AChE after 120 mins by Ellman's method
T1 sequence (P23795 whole entry): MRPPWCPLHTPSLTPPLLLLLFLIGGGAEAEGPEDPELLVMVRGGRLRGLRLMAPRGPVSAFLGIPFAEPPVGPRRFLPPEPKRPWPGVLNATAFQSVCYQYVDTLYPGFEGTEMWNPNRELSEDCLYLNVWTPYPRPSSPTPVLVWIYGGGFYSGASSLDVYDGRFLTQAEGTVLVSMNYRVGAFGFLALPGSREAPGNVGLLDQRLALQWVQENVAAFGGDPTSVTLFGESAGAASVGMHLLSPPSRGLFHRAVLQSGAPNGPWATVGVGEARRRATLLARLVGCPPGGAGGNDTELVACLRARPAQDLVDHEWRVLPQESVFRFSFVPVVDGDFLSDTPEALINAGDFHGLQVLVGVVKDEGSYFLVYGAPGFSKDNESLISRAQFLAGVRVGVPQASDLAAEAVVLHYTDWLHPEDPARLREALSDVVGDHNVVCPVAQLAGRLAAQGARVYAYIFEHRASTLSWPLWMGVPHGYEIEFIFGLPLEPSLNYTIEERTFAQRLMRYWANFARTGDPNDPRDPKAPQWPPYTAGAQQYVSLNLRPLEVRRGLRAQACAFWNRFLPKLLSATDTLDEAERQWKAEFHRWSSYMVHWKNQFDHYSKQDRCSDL

H9c2 [9] = assay: Prevention of apoptosis in rat H9c2 cells assessed as reduction in fall of mitochondrial membrane potential at 100 nM after 1 hr; assay type: functional; design: scale not given: the % may be the effect or the level left
[10] = Antioxidant activity assessed as scavenging of morpholino sydononimine based nitric oxide release by chemiluminescence assay; assay type: functional
[11] = Chemical stability in MeCN/water solution used as 50 mg/mL solution at -20 degC; assay type: physicochemical; details: buffer
[12] = Chemical stability in MeCN/water solution used as 0.5 mg/mL solution at -20 degC; assay type: physicochemical; details: buffer
[13] = Chemical stability in MeCN/water solution used as 100 mg/mL solution at room temperature; assay type: physicochemical; details: buffer
Liver = assay: Metabolic stability in mouse liver microsomes; assay type: ADME, Microsome
Liver microsomes = assay: Metabolic stability in human liver microsomes; assay type: ADME, Microsome

Chain of Butyrylcholinesterase (Q9N1N9 whole entry): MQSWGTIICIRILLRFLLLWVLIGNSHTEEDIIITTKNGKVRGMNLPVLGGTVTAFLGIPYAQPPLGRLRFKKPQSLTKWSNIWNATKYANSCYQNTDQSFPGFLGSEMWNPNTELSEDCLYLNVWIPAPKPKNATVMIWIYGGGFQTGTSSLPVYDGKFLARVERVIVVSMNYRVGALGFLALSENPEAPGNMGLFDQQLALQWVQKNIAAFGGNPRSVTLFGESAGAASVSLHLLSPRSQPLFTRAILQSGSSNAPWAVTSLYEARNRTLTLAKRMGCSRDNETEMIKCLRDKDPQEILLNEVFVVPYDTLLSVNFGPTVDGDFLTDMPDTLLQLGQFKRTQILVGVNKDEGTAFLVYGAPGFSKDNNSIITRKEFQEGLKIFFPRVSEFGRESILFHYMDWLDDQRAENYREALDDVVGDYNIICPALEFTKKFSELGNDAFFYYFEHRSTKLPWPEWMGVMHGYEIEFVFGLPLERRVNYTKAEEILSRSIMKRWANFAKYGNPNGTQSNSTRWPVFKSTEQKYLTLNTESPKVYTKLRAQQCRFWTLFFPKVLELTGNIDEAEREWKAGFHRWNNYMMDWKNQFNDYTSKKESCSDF

SMILES	Ratio IC50 [2]	IC50 [5] [µM]	Activity (H9c2 [7])	IC50 (Butyrylcholinesterase) [µM]	IC50 (Acetylcholinesterase) [µM]	further results
CCN(C)C(=O)Oc1cccc2c1C(CCC(=O)OC)CN2 (stereo not drawn)	0.04	–	–	–	–	Activity (Gallus gallus [1]): Active; Activity [3]: 24.8%; Activity (Gallus gallus [4]): Active
O=C(O)CCC1CNc2cccc(O)c21 (stereo not drawn)	–	1.44	–	–	–	Activity [6]: 19.1%
CCCCN(C)C(=O)Oc1cccc2c1C(CCC(=O)OC)CN2C.Cl (stereo not drawn)	2.89	6.84	31.5%	197	–	viability [8]: 93.9%
CCN(C)C(=O)Oc1ccc2c(c1)NCC2CCC(=O)O.Cl (stereo not drawn)	0.06	1.14	56.1%	10	175	viability [8]: 102%
CCN(C)C(=O)Oc1ccc2c(c1)N(C)CC2	0.14	1.15	–	58.7	418	–
CCN(C)C(=O)Oc1cccc2[nH]cc(CCC(=O)OC)c12	0.48	–	–	9.5	19.6	–
Cl.Oc1cccc2c1CCN2	–	1.15	38%	–	–	Activity (Gallus gallus [1]): Active; Activity (Gallus gallus [4]): Active
CCCCN(C)C(=O)Oc1ccc2c(CCC(=O)OC)c[nH]c2c1	–	–	28.8%	–	–	Activity (H9c2 [9]): 56%
O=C(O)CCC1CNc2cc(O)ccc21 (stereo not drawn)	–	2.34	inactive	–	–	IC50 [10]: 1.34 µM; Activity [6]: 41.9%
CCN(C)C(=O)Oc1ccc2c(c1)NCC2CCC(=O)OC (stereo not drawn)	0.07	–	–	–	–	Activity [3]: 31.7%
O=C(O)c1cc(O)c(O)c(O)c1	–	–	–	–	–	Activity [3]: 31.4%
CCN(C)C(=O)Oc1cccc2c1c(CCC(=O)OC)cn2C	–	–	–	–	180	–
COC(=O)CCC1CNc2cc(OC(=O)N(C)c3ccc(OC)cc3)ccc21.Cl (stereo not drawn)	1.4	3.41	43.8%	54	–	–
CCOC(=O)CCC1CNc2cccc(OC(=O)N(C)CC)c21 (stereo not drawn)	–	–	–	0.56	40.2	–
O=c1c(O)c(-c2ccc(O)c(O)c2)oc2cc(O)cc(O)c12 [QUERCETIN]	–	0.06	45.1%	–	–	IC50 [10]: 0.61 µM; Activity [3]: 19.2%; Activity [6]: 33.6%
COc1ccc(N(C)C(=O)Oc2cccc3c2C(CCC(=O)O)CN3C)cc1 (stereo not drawn)	> 4.8	10.2	inactive	> 600	125	viability [8]: 101%
COC(=O)CCc1c[nH]c2cc(OC(=O)N(C)c3ccc(OC)cc3)ccc12	–	–	43.1%	–	> 600	Activity (H9c2 [9]): 48.2%
COC(=O)CCC1CNc2cccc(O)c21.Cl (stereo not drawn)	–	0.67	57.3%	–	–	IC50 [10]: 0.25 µM; Activity (Gallus gallus [1]): Active; Activity [3]: 32.4%; viability [8]: 121%; Activity [6]: 10.6%; Activity (Gallus gallus [4]): Active
CCCCN(C)C(=O)Oc1ccc2c(c1)NCC2CCC(=O)OC.Cl (stereo not drawn)	6.5	24.1	40.1%	404	62.3	viability [8]: 87.8%; Activity (H9c2 [9]): 54%
CCN(C)C(=O)Oc1ccc2c(c1)NCC2CCC(=O)OC.O=C(O)CC(O)(CC(=O)O)C(=O)O (stereo not drawn)	–	–	–	–	–	Stability [11]: Stable; Stability [12]: Stable; Stability [13]: Unstable; Stability (Liver): Unstable; Stability (Liver microsomes): Unstable
CCN(C)C(=O)Oc1cccc2c1CCN2.Cl	0.1	1.38	35.3%	0.7	7.2	IC50 [10]: 0.57 µM; Activity (Gallus gallus [1]): Active; Activity [3]: 15%; Activity (Gallus gallus [4]): Active
COc1ccc(N(C)C(=O)Oc2cccc3c2C(CCC(=O)O)CN3)cc1 (stereo not drawn)	11	4.33	inactive	417	37.8	viability [8]: 95.5%
